Patent publication US11208405B2, “Pyrrole derivatives as PLK1 inhibitors” (SENTINEL ONCOLOGY LIMITED, priority 2017, dated 2021)
Structures can show the parent of a compound that is named as a salt.

Assays:
HeLa cells = assay: Arresting cells in mitosis (Mitotic Index, phosphorylated Histone H3 immunofluorescence); assay type: cell-based; details: Homo sapiens, HeLa; separate experiment; read-out: EC50 in the mitotic arrest assay
How it was run: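 HeLa cells exposed 24 h to 2-fold serial compound dilutions, in triplicate, then formaldehyde-fixed and immunostained for phospho-histone H3 and MPM2 with Hoechst counterstain. High-content imaging gave the mitotic index (% pH3-positive cells); EC50 fitted from MI versus concentration.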

[1] = Determination of oral bioavailability (plasma pharmacokinetics i.v. and p.o.); assay type: in vivo, Male CD-1 mice; details: mice
Method: Determination of Oral Bioavailability The oral bioavailability of the compound of Example 33 was determined in mice and compared with the bioavailability following intravenous injection using the following protocol. […] N=3 mice per time point with 15 ul plasma per aliquot.

cytochrome P450 2C9 = cytochrome P450 2C9 (Homo sapiens, UniProt P11712); assay: Cytochrome P450 inhibition, 2C9; assay type: in vitro ADME
cytochrome P450 2C19 = cytochrome P450 2C19 (Homo sapiens, UniProt P33261); assay: Cytochrome P450 inhibition, 2C19; assay type: in vitro ADME
cytochrome P450 3A4 = cytochrome P450 3A4 (Homo sapiens, UniProt P08684); assay: Cytochrome P450 inhibition, 3A4; assay type: in vitro ADME
[2] = tested on: glioblastoma cell line 907042; assay: Glioblastoma cancer cell viability, cell line 907042; assay type: cell-based
Method: Assay to Measure the Effects of Compounds of the Invention on Glioblastoma Cancer Cell Viability
The compound of Example 33 was tested for inhibitory activity against the glioblastoma cell lines in Table 7 below.

CDK2 = molecular target: T1, CDK2 (Homo sapiens, UniProt P24941); assay: Kinase selectivity assay (DiscoverX KinomeScreen), CDK2; assay type: binding; details: CDK2, 5 μM; read-out: % Control
T1 construct: purchased DiscoverX
Method: (§1) The compound of Example 33 was tested for off-target activity against a panel of fifty five kinases bearing functional or structural similarity to PLK1 at a concentration of 5 μM using the DiscoverX KinomeScreen assay.

GSG2 = molecular target: T2, GSG2 (Homo sapiens, UniProt Q8TF76); assay: Kinase selectivity assay (DiscoverX KinomeScreen), GSG2; assay type: binding; details: GSG2, 5 μM; read-out: % Control
T2 construct: purchased DiscoverX
Method: as §1

IKBKB = molecular target: T3, IKBKB (Homo sapiens, UniProt O14920); assay: Kinase selectivity assay (DiscoverX KinomeScreen), IKBKB; assay type: binding; details: read-out: % Control
T3 construct: purchased DiscoverX
Method: as §1

NEK1 = molecular target: T4, NEK1 (Homo sapiens, UniProt Q96PY6); assay: Kinase selectivity assay (DiscoverX KinomeScreen), NEK1; assay type: binding; details: NEK1, 5 μM; read-out: % Control
T4 construct: purchased DiscoverX
Method: as §1

NEK7 = molecular target: T5, NEK7 (Homo sapiens, UniProt Q8TDX7); assay: Kinase selectivity assay (DiscoverX KinomeScreen), NEK7; assay type: binding; details: NEK7, 5 μM; read-out: % Control
T5 construct: purchased DiscoverX
Method: as §1

DSTYK = molecular target: T6, DSTYK (Homo sapiens, UniProt Q6XUX3); assay: Kinase selectivity assay (DiscoverX KinomeScreen), DSTYK; assay type: binding; details: read-out: % Control
T6 construct: purchased DiscoverX
Method: as §1

SBK1 = molecular target: T7, SBK1 (Homo sapiens, UniProt Q52WX2); assay: Kinase selectivity assay (DiscoverX KinomeScreen), SBK1; assay type: binding; details: SBK1, 5 μM; read-out: % Control
T7 construct: purchased DiscoverX
Method: as §1

STK36 = molecular target: T8, STK36 (Homo sapiens, UniProt Q9NRP7); assay: Kinase selectivity assay (DiscoverX KinomeScreen), STK36; assay type: binding; details: STK36, 5 μM; read-out: % Control
T8 construct: purchased DiscoverX
Method: as §1

TLK1 = molecular target: T9, TLK1 (Homo sapiens, UniProt Q9UKI8); assay: Kinase selectivity assay (DiscoverX KinomeScreen), TLK1; assay type: binding; details: TLK1, 5 μM; read-out: % Control
T9 construct: purchased DiscoverX
Method: as §1

ULK1 = molecular target: T10, ULK1 (Homo sapiens, UniProt O75385); assay: Kinase selectivity assay (DiscoverX KinomeScreen), ULK1; assay type: binding; details: ULK1, 5 μM; read-out: % Control
T10 construct: purchased DiscoverX
Method: as §1

ULK3 = molecular target: T11, ULK3 (Homo sapiens, UniProt Q6PHR2); assay: Kinase selectivity assay (DiscoverX KinomeScreen), ULK3; assay type: binding; details: ULK3, 5 μM; read-out: % Control
T11 construct: purchased DiscoverX
Method: as §1

WEE2 = molecular target: T12, WEE2 (Homo sapiens, UniProt P0C1S8); assay: Kinase selectivity assay (DiscoverX KinomeScreen), WEE2; assay type: binding; details: WEE2, 5 μM; read-out: % Control
T12 construct: purchased DiscoverX
Method: as §1

[3] = male, CD-1, mouse, 2 mg/kg IV, plasma
[4] = male, CD-1, mouse, 10 mg/Kg PO, plasma

T2 sequence (Q8TF76 whole entry): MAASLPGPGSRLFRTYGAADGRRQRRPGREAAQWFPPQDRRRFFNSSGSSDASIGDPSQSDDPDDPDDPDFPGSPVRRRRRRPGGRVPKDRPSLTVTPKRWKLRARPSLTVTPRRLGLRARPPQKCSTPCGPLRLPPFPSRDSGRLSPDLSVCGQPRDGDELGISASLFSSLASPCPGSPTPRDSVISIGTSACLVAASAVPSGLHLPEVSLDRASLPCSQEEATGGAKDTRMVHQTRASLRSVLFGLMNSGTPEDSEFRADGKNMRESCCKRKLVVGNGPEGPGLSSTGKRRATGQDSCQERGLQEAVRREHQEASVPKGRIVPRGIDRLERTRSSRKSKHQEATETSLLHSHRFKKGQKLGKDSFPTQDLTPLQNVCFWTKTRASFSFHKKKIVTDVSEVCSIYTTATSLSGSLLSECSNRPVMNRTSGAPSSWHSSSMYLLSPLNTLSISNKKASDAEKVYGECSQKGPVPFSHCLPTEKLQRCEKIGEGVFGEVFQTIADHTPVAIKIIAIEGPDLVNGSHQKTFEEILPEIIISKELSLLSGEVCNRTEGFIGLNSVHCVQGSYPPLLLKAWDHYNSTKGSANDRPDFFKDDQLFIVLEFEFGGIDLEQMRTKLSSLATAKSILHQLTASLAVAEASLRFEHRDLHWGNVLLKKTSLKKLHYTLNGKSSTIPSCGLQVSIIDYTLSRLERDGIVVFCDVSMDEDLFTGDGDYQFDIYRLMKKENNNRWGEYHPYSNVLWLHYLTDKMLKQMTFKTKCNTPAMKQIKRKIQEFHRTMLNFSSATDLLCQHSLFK
T7 sequence (Q52WX2 whole entry): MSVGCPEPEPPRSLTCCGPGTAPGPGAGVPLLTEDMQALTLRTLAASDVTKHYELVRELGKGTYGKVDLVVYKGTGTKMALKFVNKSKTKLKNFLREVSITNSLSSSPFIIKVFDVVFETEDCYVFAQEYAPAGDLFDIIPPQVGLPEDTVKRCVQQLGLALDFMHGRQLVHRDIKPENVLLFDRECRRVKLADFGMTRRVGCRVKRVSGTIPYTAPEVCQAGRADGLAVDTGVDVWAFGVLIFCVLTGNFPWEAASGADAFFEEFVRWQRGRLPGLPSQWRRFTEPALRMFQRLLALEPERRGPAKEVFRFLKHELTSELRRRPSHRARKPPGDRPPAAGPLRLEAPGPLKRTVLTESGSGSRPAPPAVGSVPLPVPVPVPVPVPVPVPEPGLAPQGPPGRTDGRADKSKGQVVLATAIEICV
T5 sequence (Q8TDX7 whole entry): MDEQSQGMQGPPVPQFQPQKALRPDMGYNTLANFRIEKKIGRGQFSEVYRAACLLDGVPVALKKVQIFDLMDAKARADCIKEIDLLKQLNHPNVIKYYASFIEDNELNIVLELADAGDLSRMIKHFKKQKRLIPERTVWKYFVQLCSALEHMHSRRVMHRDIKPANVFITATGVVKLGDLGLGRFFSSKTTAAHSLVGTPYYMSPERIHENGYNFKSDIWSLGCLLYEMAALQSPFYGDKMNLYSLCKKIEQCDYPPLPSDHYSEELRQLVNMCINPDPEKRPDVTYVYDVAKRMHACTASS
cytochrome P450 3A4, sequence (P08684 whole entry): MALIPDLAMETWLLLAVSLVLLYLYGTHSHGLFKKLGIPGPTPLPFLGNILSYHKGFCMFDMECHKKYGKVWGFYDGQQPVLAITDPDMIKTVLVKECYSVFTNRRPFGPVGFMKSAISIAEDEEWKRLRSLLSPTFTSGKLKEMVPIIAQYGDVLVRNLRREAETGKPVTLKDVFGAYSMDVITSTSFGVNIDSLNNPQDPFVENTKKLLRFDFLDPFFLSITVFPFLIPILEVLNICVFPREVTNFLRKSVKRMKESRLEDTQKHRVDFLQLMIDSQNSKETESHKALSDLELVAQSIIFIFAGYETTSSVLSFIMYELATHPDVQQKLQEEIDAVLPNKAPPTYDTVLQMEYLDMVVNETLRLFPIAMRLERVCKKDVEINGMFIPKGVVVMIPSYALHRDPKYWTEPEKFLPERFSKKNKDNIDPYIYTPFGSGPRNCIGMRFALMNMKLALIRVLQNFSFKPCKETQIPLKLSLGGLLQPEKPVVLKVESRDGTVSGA
T9 sequence (Q9UKI8 whole entry): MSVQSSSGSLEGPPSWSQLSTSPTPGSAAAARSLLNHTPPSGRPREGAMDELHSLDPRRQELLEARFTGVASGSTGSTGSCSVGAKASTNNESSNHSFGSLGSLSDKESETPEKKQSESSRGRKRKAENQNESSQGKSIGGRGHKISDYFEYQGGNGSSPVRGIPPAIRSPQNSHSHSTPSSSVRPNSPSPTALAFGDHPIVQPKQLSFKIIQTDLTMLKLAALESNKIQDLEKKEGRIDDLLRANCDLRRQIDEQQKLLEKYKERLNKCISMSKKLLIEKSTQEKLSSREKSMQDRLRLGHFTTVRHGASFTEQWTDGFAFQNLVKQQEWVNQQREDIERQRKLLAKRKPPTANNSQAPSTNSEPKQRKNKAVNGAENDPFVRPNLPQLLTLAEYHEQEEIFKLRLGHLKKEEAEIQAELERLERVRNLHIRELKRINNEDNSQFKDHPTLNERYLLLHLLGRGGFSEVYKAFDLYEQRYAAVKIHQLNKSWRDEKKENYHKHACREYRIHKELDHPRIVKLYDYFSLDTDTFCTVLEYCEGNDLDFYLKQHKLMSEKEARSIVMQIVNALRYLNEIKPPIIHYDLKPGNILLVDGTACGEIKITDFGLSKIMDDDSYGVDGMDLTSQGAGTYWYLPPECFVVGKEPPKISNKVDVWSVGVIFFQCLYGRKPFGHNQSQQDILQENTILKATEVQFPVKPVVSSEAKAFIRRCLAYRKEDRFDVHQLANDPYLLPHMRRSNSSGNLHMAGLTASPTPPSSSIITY
T12 sequence (P0C1S8 whole entry): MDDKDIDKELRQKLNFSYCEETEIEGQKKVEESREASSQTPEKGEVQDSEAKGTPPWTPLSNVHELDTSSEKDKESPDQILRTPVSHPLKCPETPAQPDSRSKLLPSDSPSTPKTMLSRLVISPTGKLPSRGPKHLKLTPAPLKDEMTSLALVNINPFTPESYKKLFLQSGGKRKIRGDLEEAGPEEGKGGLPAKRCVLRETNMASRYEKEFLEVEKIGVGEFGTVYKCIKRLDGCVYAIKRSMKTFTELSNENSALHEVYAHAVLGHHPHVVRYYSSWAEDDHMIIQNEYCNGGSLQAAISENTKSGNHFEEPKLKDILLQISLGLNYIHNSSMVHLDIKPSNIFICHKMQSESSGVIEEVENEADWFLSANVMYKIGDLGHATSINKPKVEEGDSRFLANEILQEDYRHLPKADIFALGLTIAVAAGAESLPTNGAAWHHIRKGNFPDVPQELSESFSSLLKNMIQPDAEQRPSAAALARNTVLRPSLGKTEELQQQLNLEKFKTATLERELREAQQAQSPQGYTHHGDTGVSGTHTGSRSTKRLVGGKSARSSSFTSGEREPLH
T3 sequence (O14920 whole entry): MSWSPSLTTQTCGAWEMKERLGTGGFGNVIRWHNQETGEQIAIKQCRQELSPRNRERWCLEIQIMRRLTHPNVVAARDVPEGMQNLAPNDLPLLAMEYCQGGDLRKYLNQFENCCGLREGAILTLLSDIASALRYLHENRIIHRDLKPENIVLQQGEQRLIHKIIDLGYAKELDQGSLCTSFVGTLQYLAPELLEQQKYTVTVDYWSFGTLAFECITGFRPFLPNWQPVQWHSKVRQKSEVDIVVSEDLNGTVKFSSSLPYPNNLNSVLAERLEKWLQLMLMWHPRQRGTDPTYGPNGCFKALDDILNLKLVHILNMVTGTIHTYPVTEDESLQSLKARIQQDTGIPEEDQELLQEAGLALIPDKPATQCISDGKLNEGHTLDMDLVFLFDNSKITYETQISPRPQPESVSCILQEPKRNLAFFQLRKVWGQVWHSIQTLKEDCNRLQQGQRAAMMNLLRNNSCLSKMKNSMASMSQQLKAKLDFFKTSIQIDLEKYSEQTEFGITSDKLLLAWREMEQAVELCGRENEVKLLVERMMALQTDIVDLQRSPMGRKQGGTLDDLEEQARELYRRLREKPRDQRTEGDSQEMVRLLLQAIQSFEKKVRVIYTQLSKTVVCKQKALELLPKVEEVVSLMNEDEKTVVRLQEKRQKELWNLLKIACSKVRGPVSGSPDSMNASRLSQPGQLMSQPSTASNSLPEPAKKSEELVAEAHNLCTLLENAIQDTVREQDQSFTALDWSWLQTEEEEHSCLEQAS
cytochrome P450 2C19, sequence (P33261 whole entry): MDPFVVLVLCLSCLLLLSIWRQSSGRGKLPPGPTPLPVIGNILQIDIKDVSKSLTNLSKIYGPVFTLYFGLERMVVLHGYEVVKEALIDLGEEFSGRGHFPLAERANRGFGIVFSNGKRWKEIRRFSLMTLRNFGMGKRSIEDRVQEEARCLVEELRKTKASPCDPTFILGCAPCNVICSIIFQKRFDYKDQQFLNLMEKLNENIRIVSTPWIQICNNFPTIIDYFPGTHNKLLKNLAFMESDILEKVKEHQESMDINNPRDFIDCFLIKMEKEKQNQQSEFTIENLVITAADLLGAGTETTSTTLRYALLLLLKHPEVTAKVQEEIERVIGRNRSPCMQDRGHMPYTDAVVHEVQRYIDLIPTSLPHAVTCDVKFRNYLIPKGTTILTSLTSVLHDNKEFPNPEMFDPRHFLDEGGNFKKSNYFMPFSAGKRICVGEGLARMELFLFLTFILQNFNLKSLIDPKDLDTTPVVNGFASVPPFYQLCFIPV

`CN(C)CCNC(=O)c1ccc(-c2ccc(-c3ccc(Cl)cc3)n2-c2ccccc2C(F)(F)F)cc1` [Example 33, 4-[5-(4-chlorophenyl)-1-[2-(trifluoromethyl)phenyl]pyrrol-2-yl]-N-[2-(dimethylamino)ethyl]benzamide Hydrochloride] gave an EC50 (HeLa cells) of 61 ± 10 nM, an AUC(0-inf) [1, 3] of 2100 ng·h/mL and a Cmax [1, 3] of 873 ng/mL. For the same compound, the half-life ([1]; male, CD-1, mouse, 2 mg/kg IV, plasma, read-out: T½ (converted)) was 13 h, the Vd ([1]; male, CD-1, mouse, 2 mg/kg IV, plasma, read-out: Vss) was 17 L/kg and the AUC(0-inf) [1, 4] was 9800 ng·h/mL. The Cmax [1, 4] was 415 ng/mL, the CI ([1]; 2 mg/kg IV, plasma) was 16 mL/min/kg and the F ([1]; 10 mg/Kg PO versus 2 mg/kg IV) was 93%. For the same compound, the T½ ([1]; 10 mg/Kg PO, plasma) was 15 h, the Vz ([1]; 10 mg/Kg PO, plasma) was 23 L/kg and the “cytochrome P450 inhibition 2C9” value (cytochrome P450 2C9) was greater than 10 µM. The “cytochrome P450 inhibition 2C19” value (cytochrome P450 2C19) was greater than 10 µM, the “cytochrome P450 inhibition 3A4” value (cytochrome P450 3A4) was greater than 10 µM and the IC50 [2] was 71 nM. For the same compound, the remaining activity at 5 µM (CDK2) was 89%, the remaining activity at 5 µM (GSG2) was 77% and the remaining activity at 5 µM (IKBKB) was 100%. For the same compound, the remaining activity at 5 µM (NEK1) was 100%, the remaining activity at 5 µM (NEK7) was 79% and the remaining activity at 5 µM (DSTYK) was 75%. For the same compound, the remaining activity at 5 µM (SBK1) was 61%, the remaining activity at 5 µM (STK36) was 91% and the remaining activity at 5 µM (TLK1) was 99%. For the same compound, the remaining activity at 5 µM (ULK1) was 84%, the remaining activity at 5 µM (ULK3) was 88% and the remaining activity at 5 µM (WEE2) was 92%.
